{
  "source": "paper PMC5555364",
  "about": "(ACS chemical neuroscience, 2016)",
  "origin": "cited, not measured here",
  "key": {"[1]": {"test_system": "single-point mutants of rNaV1.4", "conditions": "all amino acid mutations of Figure 5 except tyrosine 1586"}, "NaV": {"test_system": "NaV", "conditions": "hyperpolarizing"}},
  "data": [
    {"substance": "Batrachotoxin [BTX]", "values": [
      {"measurement": "effect of mutations on BTX action on channel function", "setting": "[1]", "result": "abrogate the effect of BTX"},
      {"measurement": "shift of voltage-dependence of channel activation", "setting": "NaV", "result": "−45", "unit": "mV"}
    ]}
  ]
}
